From patent publication US20260317312A1, “ISOXAZOLIDINES AS RIPK1 INHIBITORS AND USE THEREOF” (GENZYME CORPORATION, priority 2023, published 2026)

Experiments:
[1] = molecular target: T1, hRIPK1 (aa 1-375) fusion protein (Homo sapiens, UniProt Q13546); assay: Receptor-Interacting Protein Kinase 1 inhibition, ADP Glo assay (conversion of ATP to ADP due to autophosphorylation); assay type: biochemical; settings: ATP 50 μM, 30 min preincubation, 240 min incubation, room temperature, DMSO 1%
T1 construct: hRIPK1 (aa 1-375) fusion protein
T1 sequence (Q13546 1-375): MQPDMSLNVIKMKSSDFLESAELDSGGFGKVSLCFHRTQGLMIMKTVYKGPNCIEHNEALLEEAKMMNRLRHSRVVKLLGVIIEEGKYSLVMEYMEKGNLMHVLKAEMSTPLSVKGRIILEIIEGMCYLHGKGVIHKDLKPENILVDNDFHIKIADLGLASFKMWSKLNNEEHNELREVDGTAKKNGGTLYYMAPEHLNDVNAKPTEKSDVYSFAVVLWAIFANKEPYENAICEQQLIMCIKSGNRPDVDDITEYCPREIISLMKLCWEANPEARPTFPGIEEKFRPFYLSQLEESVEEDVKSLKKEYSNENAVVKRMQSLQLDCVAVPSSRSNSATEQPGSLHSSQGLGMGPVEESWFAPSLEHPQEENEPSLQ
Outline: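 hRIPK1 (aa 1-375) fusion protein (3.6 μg/ml final) was preincubated 30 min at rt with compound (33300-1.69 nM, 1% DMSO), then 50 μM ATP was added for 240 min at rt. ADP from autophosphorylation was measured by ADP-Glo luminescence and curves fitted by nonlinear regression.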

U937 cells = assay: Cellular assay in U937 cells to measure activity of RIPK1-inhibitors on cell death (necroptosis); assay type: cell-based; settings: Homo sapiens, U-937, TNFα/zVAD.fmk induced cell death (necroptosis), overnight (18 to 24 hrs), 37° C., MTS readout

IC50 [1] | Structure (SMILES) | IC50 (U937 cells)
36 nM | N#Cc1cc(F)cc([C@@H]2CCON2C(=O)[C@H]2C[C@H](n3ccc4cc(F)ccc43)C2)c1 [Compound 105, trans-3-fluoro-5-[(3S)-2-[3-(5-fluoroindol-1-yl)cyclobutanecarbonyl]isoxazolidin-3-yl]benzonitrile] | 202 nM
77 nM | O=C([C@H]1C[C@H](n2ccc3cc(F)ccc32)C1)N1OCC[C@H]1c1cc(F)cc(F)c1 [Compound 106, trans-[(3S)-3-(3,5-difluorophenyl)isoxazolidin-2-yl]-[3-(5-fluoroindol-1-yl)cyclobutyl]methanone] | 353 nM
19 nM | N#Cc1cc(F)cc([C@@H]2CCON2C(=O)[C@H]2C[C@@H](n3ccc4cc(F)ccc43)C2)c1 [Compound 107, cis-3-fluoro-5-[(3S)-2-[3-(5-fluoroindol-1-yl)cyclobutanecarbonyl]isoxazolidin-3-yl]benzonitrile] | 214 nM
26 nM | O=C([C@H]1C[C@@H](n2ccc3cc(F)ccc32)C1)N1OCC[C@H]1c1cc(F)cc(F)c1 [Compound 108, cis-[(3S)-3-(3,5-difluorophenyl)isoxazolidin-2-yl]-[3-(5-fluoroindol-1-yl)cyclobutyl]methanone] | 94 nM
55 nM | N#Cc1cc(F)cc([C@@H]2CCON2C(=O)[C@H]2C[C@@H](n3cc4cc(F)ccc4n3)C2)c1 [Compound 109, cis-3-fluoro-5-[(3S)-2-[3-(5-fluoroindazol-2-yl)cyclobutanecarbonyl]isoxazolidin-3-yl]benzonitrile] | 745 nM
62 nM | O=C([C@H]1C[C@@H](n2cc3cc(F)ccc3n2)C1)N1OCC[C@H]1c1cc(F)cc(F)c1 [Compound 110, cis-[(3S)-3-(3,5-difluorophenyl)isoxazolidin-2-yl]-[3-(5-fluoroindazol-2-yl)cyclobutyl]methanone] | 97 nM
48 nM | NC(=O)c1ccc(F)c(OC[C@H]2CC[C@H](C(=O)N3OCC[C@H]3c3cnccn3)CC2)c1 [Compound 111, trans-4-fluoro-3-[[4-[(3S)-3-pyrazin-2-ylisoxazolidine-2-carbonyl]cyclohexyl]methoxy]benzamide] | 153 nM
41 nM | NC(=O)c1cc(F)cc(OC[C@H]2CC[C@H](C(=O)N3OCC[C@H]3c3cnccn3)CC2)c1 [Compound 112, trans-3-fluoro-5-[[4-[(3S)-3-pyrazin-2-ylisoxazolidine-2-carbonyl]cyclohexyl]methoxy]benzamide] | 47 nM
38 nM | NC(=O)c1ccc(OC[C@H]2CC[C@H](C(=O)N3OCC[C@H]3c3cnccn3)CC2)c(F)c1 [Compound 113, trans-3-fluoro-4-[[4-[(3S)-3-pyrazin-2-ylisoxazolidine-2-carbonyl]cyclohexyl]methoxy]benzamide] | 97 nM
11 nM | COc1cncc([C@@H]2CCON2C(=O)[C@H]2CC[C@H](COc3cccc(C(N)=O)c3)CC2)n1 [Compound 129, trans-3-[[4-[(3S)-3-(6-methoxypyrazin-2-yl)isoxazolidine-2-carbonyl]cyclohexyl]methoxy]benzamide] | 28 nM
37 nM | Cc1nc([C@@H]2CCON2C(=O)[C@H]2CC[C@H](COc3cccc(C(N)=O)c3)CC2)cs1 [Compound 130, trans-3-[[4-[(3S)-3-(2-methylthiazol-4-yl)isoxazolidine-2-carbonyl]cyclohexyl]methoxy]benzamide] | 98 nM
47 nM | NC(=O)c1cccc(OC[C@H]2CC[C@H](C(=O)N3OCC[C@H]3c3ccccn3)CC2)c1 [Compound 131, trans-3-[[4-[(3S)-3-(2-pyridyl)isoxazolidine-2-carbonyl]cyclohexyl]methoxy]benzamide] | 236 nM
